Reference: ChEMBL document CHEMBL1131309, “Isoindol-1-one analogues of 4-(2'-methoxyphenyl)-1-[2'-[N-(2"-pyridyl)-p-iodobenzamido]ethyl]pipera zine (p-MPPI) as 5-HT1A receptor ligands” (J Med Chem, 1998)
Values belong to the molecule of their own block, whether it stands above or below them.

What was measured:
Rattus norvegicus [1] = test: Biodistribution was measured in blood of rat by injecting the radiolabeled compound intravenously and the value measured after 60 min; format: ADME, organism-based; details: in vivo, iv, 1 h
Rattus norvegicus [2] = test: Biodistribution was measured in rat spleen by injecting the radiolabeled compound intravenously and the value measured after 60 min; format: ADME, organism-based; details: in vivo, iv, 1 h
Rattus norvegicus [3] = test: Biodistribution was measured in rat hippocampus by injecting the radiolabeled compound intravenously and the value measured after 2 min; format: ADME, organism-based; details: in vivo, iv
Rattus norvegicus [4] = test: Biodistribution was measured in rat skin by injecting the radiolabeled compound intravenously and the value measured after 30 min; format: ADME, organism-based, Zone of skin; details: in vivo, iv, 0.5 h
Rattus norvegicus [5] = test: Biodistribution was measured in rat kidney by injecting the radiolabeled compound intravenously and the value measured after 30 min; format: ADME, organism-based; details: in vivo, iv, 0.5 h
Rattus norvegicus [6] = test: Biodistribution was measured in rat muscle by injecting the radiolabeled compound intravenously and the value measured after 30 min; format: ADME, organism-based, Muscle tissue; details: in vivo, iv, 0.5 h
Rattus norvegicus [7] = test: Biodistribution was measured in rat cerebellum by injecting the radiolabeled compound intravenously and the value measured after 60 min; format: ADME, organism-based; details: in vivo, iv, 1 h
Rattus norvegicus [8] = test: Biodistribution was measured in rat brain by injecting the radiolabeled compound intravenously and the value measured after 60 min; format: ADME, organism-based; details: in vivo, iv, 1 h
Rattus norvegicus [9] = test: Biodistribution was measured in rat muscle by injecting the radiolabeled compound intravenously and the value measured after 2 min; format: ADME, organism-based, Muscle tissue; details: in vivo, iv
Rattus norvegicus [10] = test: Biodistribution was measured in rat thyroid by injecting the radiolabeled compound intravenously and the value measured after 30 min; format: ADME, organism-based, Thyroid gland; details: in vivo, iv, 0.5 h
[11] = Biodistribution was measured in hippocampus region(HP/CB) by injecting the radiolabeled compound intravenously and the value measured after 30 min; format: ADME, organism-based; details: in vivo, iv, 0.5 h
Rattus norvegicus [12] = test: Biodistribution was measured in rat brain by injecting the radiolabeled compound intravenously and the value measured after 30 min; format: ADME, organism-based; details: in vivo, iv, 0.5 h
Rattus norvegicus [13] = test: Biodistribution was measured in rat brain by injecting the radiolabeled compound intravenously and the value measured after 2 min; format: ADME, organism-based; details: in vivo, iv
Rattus norvegicus [14] = test: Biodistribution was measured in rat lung by injecting the radiolabeled compound intravenously and the value measured after 60 min; format: ADME, organism-based; details: in vivo, iv, 1 h
Rattus norvegicus [15] = test: Biodistribution was measured in rat striatum by injecting the radiolabeled compound intravenously and the value measured after 2 min; format: ADME, organism-based; details: in vivo, iv
Rattus norvegicus [16] = test: Biodistribution was measured in rat hippocampus by injecting the radiolabeled compound intravenously and the value measured after 30 min; format: ADME, organism-based; details: in vivo, iv, 0.5 h
Rattus norvegicus [17] = test: Biodistribution was measured in rat cortex by injecting the radiolabeled compound intravenously and the value measured after 60 min; format: ADME, organism-based; details: in vivo, iv, 1 h
Rattus norvegicus [18] = test: Biodistribution was measured in blood of rat by injecting the radiolabeled compound intravenously and the value measured after 30 min; format: ADME, organism-based; details: in vivo, iv, 0.5 h
Rattus norvegicus [19] = test: Biodistribution was measured in rat striatum by injecting the radiolabeled compound intravenously and the value measured after 30 min; format: ADME, organism-based; details: in vivo, iv, 0.5 h
Rattus norvegicus [20] = test: Biodistribution was measured in rat striatum by injecting the radiolabeled compound intravenously and the value measured after 60 min; format: ADME, organism-based; details: in vivo, iv, 1 h
Rattus norvegicus [21] = test: Biodistribution was measured in rat muscle by injecting the radiolabeled compound intravenously and the value measured after 60 min; format: ADME, organism-based, Muscle tissue; details: in vivo, iv, 1 h
Rattus norvegicus [22] = test: Biodistribution was measured in rat heart by injecting the radiolabeled compound intravenously and the value measured after 60 min; format: ADME, organism-based; details: in vivo, iv, 1 h
Rattus norvegicus [23] = test: Biodistribution was measured in rat spleen by injecting the radiolabeled compound intravenously and the value measured after 30 min; format: ADME, organism-based; details: in vivo, iv, 0.5 h
Rattus norvegicus [24] = test: Biodistribution was measured in rat liver by injecting the radiolabeled compound intravenously and the value measured after 30 min; format: ADME, organism-based; details: in vivo, iv, 0.5 h
[25] = Biodistribution was measured in hippocampus region(HP/CB) by injecting the radiolabeled compound intravenously and the value measured after 60 min; format: ADME, organism-based; details: in vivo, iv, 1 h
Rattus norvegicus [26] = test: Biodistribution was measured in rat liver by injecting the radiolabeled compound intravenously and the value measured after 60 min; format: ADME, organism-based; details: in vivo, iv, 1 h
Rattus norvegicus [27] = test: Biodistribution was measured in rat lung by injecting the radiolabeled compound intravenously and the value measured after 2 min; format: ADME, organism-based; details: in vivo, iv
Rattus norvegicus [28] = test: Biodistribution was measured in rat heart by injecting the radiolabeled compound intravenously and the value measured after 30 min; format: ADME, organism-based; details: in vivo, iv, 0.5 h
[29] = target: T1, 5-hydroxytryptamine receptor 1A (Rattus norvegicus, UniProt P19327)
T1 sequence (P19327 whole entry): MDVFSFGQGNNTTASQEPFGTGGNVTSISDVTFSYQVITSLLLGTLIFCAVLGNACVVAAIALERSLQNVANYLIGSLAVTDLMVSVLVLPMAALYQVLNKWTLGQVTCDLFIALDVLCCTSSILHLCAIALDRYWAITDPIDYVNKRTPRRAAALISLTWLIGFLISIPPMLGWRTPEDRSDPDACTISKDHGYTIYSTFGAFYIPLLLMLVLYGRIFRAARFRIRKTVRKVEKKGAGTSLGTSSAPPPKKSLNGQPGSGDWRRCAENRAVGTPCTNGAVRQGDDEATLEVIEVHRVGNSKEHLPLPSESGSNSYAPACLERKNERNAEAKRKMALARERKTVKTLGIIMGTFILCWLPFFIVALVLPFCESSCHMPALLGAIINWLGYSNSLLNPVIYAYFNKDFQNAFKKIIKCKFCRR
Description: (§1) In vitro binding affinity for 5-hydroxytryptamine 1A receptor in rat hippocampal membranes by [125I]-labeled agonist displacement.

Rattus norvegicus [30] = test: Biodistribution was measured in rat kidney by injecting the radiolabeled compound intravenously and the value measured after 60 min; format: ADME, organism-based; details: in vivo, iv, 1 h
[31] = target: T1, 5-hydroxytryptamine receptor 1A; remark: listed apart in the source
Description: as §1

Rattus norvegicus [32] = test: Biodistribution was measured in rat cerebellum by injecting the radiolabeled compound intravenously and the value measured after 30 min; format: ADME, organism-based; details: in vivo, iv, 0.5 h
Rattus norvegicus [33] = test: Biodistribution was measured in rat heart by injecting the radiolabeled compound intravenously and the value measured after 2 min; format: ADME, organism-based; details: in vivo, iv
Rattus norvegicus [34] = test: Biodistribution was measured in rat spleen by injecting the radiolabeled compound intravenously and the value measured after 2 min; format: ADME, organism-based; details: in vivo, iv
Rattus norvegicus [35] = test: Biodistribution was measured in rat skin by injecting the radiolabeled compound intravenously and the value measured after 60 min; format: ADME, organism-based, Zone of skin; details: in vivo, iv, 1 h
Rattus norvegicus [36] = test: Biodistribution was measured in rat cortex by injecting the radiolabeled compound intravenously and the value measured after 30 min; format: ADME, organism-based; details: in vivo, iv, 0.5 h
Rattus norvegicus [37] = test: Biodistribution was measured in rat hippocampus by injecting the radiolabeled compound intravenously and the value measured after 60 min; format: ADME, organism-based; details: in vivo, iv, 1 h
Rattus norvegicus [38] = test: Biodistribution was measured in rat thyroid by injecting the radiolabeled compound intravenously and the value measured after 60 min; format: ADME, organism-based, Thyroid gland; details: in vivo, iv, 1 h
Rattus norvegicus [39] = test: Biodistribution was measured in rat cortex by injecting the radiolabeled compound intravenously and the value measured after 2 min; format: ADME, organism-based; details: in vivo, iv
Rattus norvegicus [40] = test: Biodistribution was measured in rat thyroid by injecting the radiolabeled compound intravenously and the value measured after 2 min; format: ADME, organism-based, Thyroid gland; details: in vivo, iv
Rattus norvegicus [41] = test: Biodistribution was measured in blood of rat by injecting the radiolabeled compound intravenously and the value measured after 2 min; format: ADME, organism-based; details: in vivo, iv
[42] = Biodistribution was measured in hippocampus region(HP/CB) by injecting the radiolabeled compound intravenously and the value measured after 2 min; format: ADME, organism-based; details: in vivo, iv
Rattus norvegicus [43] = test: Biodistribution was measured in rat cerebellum by injecting the radiolabeled compound intravenously and the value measured after 2 min; format: ADME, organism-based; details: in vivo, iv
Rattus norvegicus [44] = test: Biodistribution was measured in rat liver by injecting the radiolabeled compound intravenously and the value measured after 2 min; format: ADME, organism-based; details: in vivo, iv
Rattus norvegicus [45] = test: Biodistribution was measured in rat lung by injecting the radiolabeled compound intravenously and the value measured after 30 min; format: ADME, organism-based; details: in vivo, iv, 0.5 h
Rattus norvegicus [46] = test: Biodistribution was measured in rat kidney by injecting the radiolabeled compound intravenously and the value measured after 2 min; format: ADME, organism-based; details: in vivo, iv

Biodistribution (Rattus norvegicus [1]): 1.22 % dose organ-1
Biodistribution (Rattus norvegicus [2]): 0.15 % dose organ-1
Biodistribution (Rattus norvegicus [3]): 0.177 % dose organ-1
Biodistribution (Rattus norvegicus [4]): 5.8 % dose organ-1
Biodistribution (Rattus norvegicus [5]): 2.32 % dose organ-1
Biodistribution (Rattus norvegicus [6]): 14.35 % dose organ-1
Biodistribution (Rattus norvegicus [7]): 0.035 % dose organ-1
Biodistribution (Rattus norvegicus [8]): 0.04 % dose organ-1
Biodistribution (Rattus norvegicus [9]): 9.45 % dose organ-1
Biodistribution (Rattus norvegicus [10]): 0.05 % dose organ-1
Biodistribution [11]: 1.12 % dose organ-1
Biodistribution (Rattus norvegicus [12]): 0.11 % dose organ-1
Biodistribution (Rattus norvegicus [13]): 0.26 % dose organ-1
Biodistribution (Rattus norvegicus [14]): 0.56 % dose organ-1
Biodistribution (Rattus norvegicus [15]): 0.204 % dose organ-1
Biodistribution (Rattus norvegicus [16]): 0.09 % dose organ-1
Biodistribution (Rattus norvegicus [17]): 0.028 % dose organ-1
Biodistribution (Rattus norvegicus [18]): 1.92 % dose organ-1
Biodistribution (Rattus norvegicus [19]): 0.093 % dose organ-1
Biodistribution (Rattus norvegicus [20]): 0.035 % dose organ-1
Biodistribution (Rattus norvegicus [21]): 8.83 % dose organ-1
Biodistribution (Rattus norvegicus [22]): 0.15 % dose organ-1
Biodistribution (Rattus norvegicus [23]): 0.22 % dose organ-1
Biodistribution (Rattus norvegicus [24]): 18.65 % dose organ-1
Biodistribution [25]: 1.06 % dose organ-1
Biodistribution (Rattus norvegicus [26]): 10.76 % dose organ-1
Biodistribution (Rattus norvegicus [27]): 2.05 % dose organ-1
Biodistribution (Rattus norvegicus [28]): 0.3 % dose organ-1
Ki [29]: 0.069 nM
Biodistribution (Rattus norvegicus [30]): 1.42 % dose organ-1
Ki [31]: 0.069 nM
Biodistribution (Rattus norvegicus [32]): 0.08 % dose organ-1
Biodistribution (Rattus norvegicus [33]): 1.42 % dose organ-1
Biodistribution (Rattus norvegicus [34]): 0.26 % dose organ-1
Biodistribution (Rattus norvegicus [35]): 4.96 % dose organ-1
Biodistribution (Rattus norvegicus [36]): 0.081 % dose organ-1
Biodistribution (Rattus norvegicus [37]): 0.037 % dose organ-1
Biodistribution (Rattus norvegicus [38]): 0.06 % dose organ-1
Biodistribution (Rattus norvegicus [39]): 0.242 % dose organ-1
Biodistribution (Rattus norvegicus [40]): 0.073 % dose organ-1
Biodistribution (Rattus norvegicus [41]): 2.84 % dose organ-1
Biodistribution [42]: 0.87 % dose organ-1
Biodistribution (Rattus norvegicus [43]): 0.202 % dose organ-1
Biodistribution (Rattus norvegicus [44]): 21.36 % dose organ-1
Biodistribution (Rattus norvegicus [45]): 0.7 % dose organ-1
Biodistribution (Rattus norvegicus [46]): 4.01 % dose organ-1
Structure (SMILES): COc1ccccc1N1CCN(CCN2C(=O)c3cc(I)ccc3C2c2ccccc2)CC1 (centres undefined)

Ki [29]: 51.7 nM
Structure (SMILES): COc1ccc([N+](=O)[O-])cc1N1CCN(CCN2C(=O)c3cc(I)ccc3C2c2ccccc2)CC1 (centres undefined)

Ki [29]: 0.045 nM
Structure (SMILES): COc1ccccc1N1CCN(CCN2C(=O)c3cc([N+](=O)[O-])ccc3C2c2ccccc2)CC1 (centres undefined)

Ki [29]: 0.34 nM
Structure (SMILES): COc1ccccc1N1CCN(CCN2C(=O)c3cc([N+](=O)[O-])ccc3C2(O)c2ccccc2)CC1 (centres undefined)
